Results on three molecules are retold here after patent US20110239332A1, “PROPAGATION OF SWITCHGRASS AND MISCANTHUS” (priority 2008, published 2011).

The test system of experiment [1] is switchgrass shoots. Conditions: 8 weeks (12 weeks to plant), 29° C., BAP as only plant hormone; cited from earlier work.
For experiment [2], the system named is switchgrass shoots. In words: In vitro shoot multiplication of switchgrass in culture media. Format: cell-based, Panicum virgatum L. How it is done: A drawback of the use of known propagation conditions is a limited shoot multiplication rate. […] Alexandrova described how to multiply up to 500 shoots from one plant in 8 weeks (12 weeks to plant) at 29° C. and used only one plant hormone Benzylaminopurine (BAP) for multiplication of switchgrass shoots (Alexandrova et al. 1996). However, it has been discovered that 31° C. is a preferable temperature for multiplication of switchgrass shoots. It has also been discovered that liquid medium is preferable for increased multiplication. Applicants optimized multiplication of Switchgrass shoots with a combination of several plant hormones Benzylaminopurine+Naphthaleneacetic acid+Thidiazuron+Paclobutrazol (BAP+NAA+TDZ+PBZ).
It was discovered that an increase in the amount of 6 micro-elements restored growth to shoots and prevented shoot death and, in particular, an increase in the amount of CuSO4.7H2O added to the media increased multiplication rates increased up to about 7× every 3 weeks. MS media contains 0.025 mg/L CuSO4.7H2O. An increase of up to about 10× every 3 weeks in multiplication rate was achieved when shoots were broken apart every 2-3 weeks. […]

For another experiment, the system named is Miscanthus shoots. The experiment is described as follows: In vitro shoot multiplication of Miscanthus in culture media. The experiment is classed as cell-based, Miscanthus × giganteus. Conditions: high TDZ (1.65 mg/L) compared with about 0.25 mg/L TDZ, media at 31° C. How it is done: In propagating Miscanthus stem nodes in culture media, Nielsen used high amounts of Thidiazuron (TDZ) (1.65 mg/L), which is a cost limiting hormone additive in shoot multiplication growth media (Nielsen et. al. 1993; Nielsen et. al. 1995).
Stems of actively growing Miscanthus × giganteus having dormant nodes were harvested and sterilized using 1.5% sodium hypochlorite (25% bleach) solution followed by three rinses using sterile water. Stem segments comprising nodes were cut to 3 cm long and then cut longitudinally down the center of the each stem. The prepared stem portions were then placed under growth conditions of 50 μE of light and a 16 h day. The temperature was 31° C. Stem segments were grown in […] Petri plates for solid culture, however any suitable sterile container can be used for solid or liquid culture. Time between sub-culturing was 14-21 days. Shoots were cut to 3-4 cm in length when sub-culturing.
The media used for the above-described growth conditions comprised MS medium plus vitamins (full strength) (Phytotechnologies™ Product ID-M519), 30 g/L sucrose (87.7 mM), […] MgCl2 (750 mg/L of MgCl2.6H2O), pH 5.6 for semi-solid media, […], and 6 g/L agar. The following hormones were added after autoclaving of the media. […]

Consider `c1ccc(CNc2ncnc3[nH]cnc23)cc1` [BAP, Benzylaminopurine], for which the “shoots multiplied from one plant” value with switchgrass shoots [1] is “up to 500 shoots”. As to `O.O.O.O.O.O.O.O=S(=O)([O-])[O-].[Cu+2]` [CuSO4.7H2O], the shoot multiplication rate entry in the experiment on switchgrass shoots [2] (increased CuSO4.7H2O, shoots broken apart every 2-3 weeks) was “about 10 × every 3 weeks”; with switchgrass shoots [2] (increased amount of CuSO4.7H2O added to the media (MS media contains 0.025 mg/L)), “about 7 × every 3 weeks”. As to `O=C(Nc1ccccc1)Nc1cnns1` [TDZ, Thidiazuron], the “shoot thickness and shoot production” value in the experiment with Miscanthus shoots is “multiplied shoots were thinner and shoot production was less”.
